The assay concerns leptin production. Put plainly: Enhancing activity for leptin production in adipocytes (ELISA). To be noted: leptin concentration as % of control group; for activity at 0.01 µM / activity at 0.1 µM / activity at 1 µM / activity at 0.001 µM: Rattus norvegicus, Adipocyte, 24 h, read-out: Facilitating activity to produce leptin; for activity at 0.001 µM: 1 nm; for Facilitating activity to produce leptin: 24 hr. Type of assay: cell-based, rat. An outline of the steps: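 Collagenase-dispersed epididymal adipocytes from 6-week-old male Wistar Imamichi rats, cultured in DMEM/F-12 (1:1) with test compound at final 1 µM, 100 nM, 10 nM or 1 nM (0.1% DMSO) for 24 h at 37 °C, 5% CO2. Leptin in filtrate measured by ELISA; activity = treated/DMSO-control leptin × 100 (%).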
In general terms: In an ELISA, binding on a coated surface is turned into a signal by an enzyme label.

Counter-ions that a name gives are not always drawn.

For the compound `Nc1nc(-c2cccc(NC(=O)c3cc([N+](=O)[O-])ccc3Cl)c2)cs1` [Example 233, N-[3-(2-Amiothiazol-4-yl)phenyl]-(2-chloro-5-nitrophenyl)carboxamide], the activity at 0.01 µM (10 nm) came out at 112%. For the same compound, the activity at 0.1 µM (100 nm) amounted to 121%. Consider `CCCCCCNc1ccc(-c2ccc(NC(=O)c3cc([N+](=O)[O-])ccc3Cl)cc2)cc1` [Example 195, N-[4-[4-(N-Hexylamino)phenyl]phenyl]-(2-chloro-5-nitrophenyl)carboxamide], for which the activity at 1 µM (1 μM) is 120%. Moreover, for the setting “10 nm”, the activity at 0.01 µM was 114%. Besides, for the setting “100 nm”, the activity at 0.1 µM is 123%. For `O=C(Nc1ccc(-n2ccnc2)cc1)c1cccc(NC(=O)c2cc([N+](=O)[O-])ccc2Cl)c1` [Example 231, N-[[3-[4-(Imidazol-1-yl)phenyl]aminocarbonyl]phenyl]-(2-chloro-5-nitrophenyl)carboxamide], the activity at 0.01 µM (10 nm) came to 128%. The activity at 0.1 µM (100 nm) stood at 155%. `O=C(Nc1ccc(-c2ccc(NC(=S)Nc3ccncc3)cc2)cc1)c1cc([N+](=O)[O-])ccc1Cl` [Example 258, N-[4-[4-[(Pyridin-4-yl)aminothiocarbonylamino]phenyl]phenyl]-(2-chloro-5-nitrophenyl)carboxamide]: the activity at 1 µM (1 μM) was 112%. Besides, the activity at 0.01 µM (10 nm) came out at 120%. Further, the activity at 0.1 µM (100 nm) was 114%. Consider `CCCCCCCCN(CCC)c1ccc(-c2ccc(NC(=O)c3cc([N+](=O)[O-])ccc3Cl)cc2)cc1` [Example 224, N-[4-[4-(N-Octyl-N-propylamino)phenyl]phenyl]-(2-chloro-5-nitrophenyl)carboxamide], for which the activity at 1 µM (1 μM) was 113%. Besides, the activity at 0.01 µM (10 nm) is 110%. Moreover, the activity at 0.1 µM (100 nm) is 112%. Take `CC(C)(C)c1cc(NC(=O)c2cc([N+](=O)[O-])ccc2Cl)cc(C(C)(C)C)c1O` [Example 29, N-(3,5-Di-t-butyl-4-hydroxyphenyl)-(2-chloro-5-nitrophenyl)carboxamide]: the activity at 1 µM (1 μM) came out at 142%. Consider `Cn1c(NC(=O)c2cc([N+](=O)[O-])ccc2Cl)nc2ccccc21` [Example 82, N-(1-Methylbenzimidazol-2-yl)-(2-chloro-5-nitrophenyl)carboxamide], for which, under “1 μM”, the activity at 1 µM is 111%. Also, the activity at 0.1 µM (100 nm) is 108%.

For `Cc1ccc(NC(=O)c2cc([N+](=O)[O-])ccc2Cl)nc1` [Example 52, N-(5-Methylpyridin-2-yl)-(2-chloro-5-nitrophenyl)carboxamide], the activity at 0.001 µM was determined as 111%. In the case of `Cc1cc(Cl)nc(NC(=O)c2cc([N+](=O)[O-])ccc2Cl)n1` [Example 78, N-(4-Chloro-6-methylpyrimidin-2-yl)-(2-chloro-5-nitrophenyl)carboxamide], the activity at 1 µM (1 μM) worked out at 114%. Moreover, the activity at 0.1 µM (100 nm) is 126%. Consider `O=C(Nc1ccc(N2CCN(C(=O)c3ccncc3)CC2)cc1)c1cc([N+](=O)[O-])ccc1Cl` [Example 228, N-[4-[4-(Pyridin-4-ylcarbonyl)piperazin-1-yl]phenyl]-(2-chloro-5-nitrophenyl)carboxamide], for which, where the note is “1 μM”, the activity at 1 µM is 112%. Besides, the activity at 0.01 µM (10 nm) was found to be 119%. Further, the activity at 0.1 µM (100 nm) turned out to be 122%.

Consider “N-[4-(Pyrrolidinylsulfonyl)phenyl]-(2-chloro-5-nitrophenyl)carboxamide [Example 152]”, for which the “Facilitating activity to produce leptin” value (100 nm) is on record as 116.4%. Regarding `NCCc1ccc(NC(=O)c2cc([N+](=O)[O-])ccc2Cl)cc1` [Example 267, N-[4-(2-Aminoethyl)phenyl]-(2-chloro-5-nitrophenyl)carboxamide], the activity at 0.01 µM (10 nm) came to 118%. Moreover, the activity at 0.1 µM (100 nm) was determined as 110%. For the compound `CCCCCCCCNc1ccc(-c2ccc(NC(=O)c3cc([N+](=O)[O-])ccc3Cl)cc2)cc1` [Example 219, N-[4-[4-(N-Octylamino)phenyl]phenyl]-(2-chloro-5-nitrophenyl)carboxamide], where the note is “1 μM”, the activity at 1 µM was determined as 117%. Further, the activity at 0.01 µM (10 nm) was found to be 113%. The activity at 0.1 µM (100 nm) turned out to be 119%. In the case of `O=C(Nc1ccccc1-c1ccccc1)c1cc([N+](=O)[O-])ccc1Cl` [Example 7, N-(2-Phenylphenyl)-(2-chloro-5-nitrophenyl)carboxamide], where the note is “100 nm”, the activity at 0.1 µM came out at 114%. Regarding `CCCCCCCCN(CCCCCC)c1ccc(-c2ccc(NC(=O)c3cc([N+](=O)[O-])ccc3Cl)cc2)cc1` [Example 220, N-[4-[4-(N-Hexyl-N-octylamino)phenyl]phenyl]-(2-chloro-5-nitrophenyl)carboxamide mono-hydrochloride], the activity at 1 µM (1 μM) worked out at 111%. Turning to `Cc1cc(NS(=O)(=O)c2ccc(NC(=O)c3cc([N+](=O)[O-])ccc3Cl)cc2)no1` [Example 99], where the note is “1 μM”, the “Facilitating activity to produce leptin” value is on record as 113.9%. Regarding `O=C(Nc1ccc(CCO)cc1)c1cc([N+](=O)[O-])ccc1Cl` [Example 230, N-[4-(2-Hydroxyethyl)phenyl]-(2-chloro-5-nitrophenyl)carboxamide], the activity at 0.01 µM (10 nm) amounted to 110%. For the compound `CC(C)(C)OC(=O)Nc1ccc(-c2ccc(NC(=O)c3cc([N+](=O)[O-])ccc3Cl)cc2)cc1` [Example 87, N-[4-[4-(tert-Butoxycarbonylamino)phenyl]phenyl]-(2-chloro-5-nitrophenyl)carboxamide], the activity at 1 µM (1 μM) stood at 115%. Moreover, the activity at 0.1 µM (100 nm) stood at 113%. With `CCCCCCCCN(CC)c1ccc(-c2ccc(NC(=O)c3cc([N+](=O)[O-])ccc3Cl)cc2)cc1` [Example 225, N-[4-[4-(N-Ethyl-N-octylamino)phenyl]phenyl]-(2-chloro-5-nitrophenyl)carboxamide], the activity at 1 µM (1 μM) stood at 117%. For the setting “10 nm”, the activity at 0.01 µM is 107%. Further, the activity at 0.1 µM (100 nm) is 108%.

Regarding `CCOC(=O)c1ccc(NC(=O)c2cc([N+](=O)[O-])ccc2Cl)cc1` [Example 26, N-(4-Ethoxycarbonylphenyl)-(2-chloro-5-nitrophenyl)carboxamide], the activity at 0.1 µM (100 nm) amounted to 115%. As for `CCCCCCCCN(CCCC)c1ccc(-c2ccc(NC(=O)c3cc([N+](=O)[O-])ccc3Cl)cc2)cc1.Cl` [Example 223, N-[4-[4-(N-Butyl-N-octylamino)phenyl]phenyl]-(2-chloro-5-nitrophenyl)carboxamide mono-hydrochloride], the “Facilitating activity to produce leptin” value (1 μM) stood at 115.9%, the “Facilitating activity to produce leptin” value (10 nm) came out at 109.0% and the “Facilitating activity to produce leptin” value (100 nm) came to 115.2%.

Take `O=C(Nc1ccc(NC(=S)Nc2ccncc2)cc1)c1cc([N+](=O)[O-])ccc1Cl` [Example 259, N-[4-[(Pyridin-4-yl)aminothiocarbonylamino]phenyl]-(2-chloro-5-nitrophenyl)carboxamide]: where the note is “10 nm”, the activity at 0.01 µM was found to be 111%. Further, for the setting “100 nm”, the activity at 0.1 µM was 110%. For the compound `CN(C)c1cccc(NC(=O)c2cc([N+](=O)[O-])ccc2Cl)c1` [Example 176, N-(3-Dimethylamino)phenyl-(2-chloro-5-nitrophenyl)carboxamide], where the note is “100 nm”, the activity at 0.1 µM amounted to 110%. As for `O=C(Nc1cccnc1)c1cc([N+](=O)[O-])ccc1Cl` [Example 50, N-(3-Pyridyl)-(2-chloro-5-nitrophenyl)carboxamide], the activity at 0.001 µM came out at 118%. For the same compound, where the note is “1 μM”, the activity at 1 µM was 109%. In addition, the activity at 0.01 µM (10 nm) was 124%. The activity at 0.1 µM (100 nm) is 119%. `CS(=O)(=O)N(c1ccc(-c2ccc(NC(=O)c3cc([N+](=O)[O-])ccc3Cl)cc2)cc1)S(C)(=O)=O` [Example 235, N-[4-[4-(N,N-Dimethanesulfonylamino)phenyl]phenyl]-(2-chloro-5-nitrophenyl)carboxamide]: under “1 μM”, the activity at 1 µM was found to be 143%. Also, where the note is “10 nm”, the activity at 0.01 µM amounted to 111%. For the same compound, the activity at 0.1 µM (100 nm) is 121%. With `O=C(Nc1cccc2nsnc12)c1cc([N+](=O)[O-])ccc1Cl` [Example 86, N-(2,1,3-Benzothiazol-4-yl)-(2-chloro-5-nitrophenyl)carboxamide], the activity at 0.1 µM (100 nm) was determined as 110%. Consider `Cc1ccccc1-c1csc(NC(=O)c2cc([N+](=O)[O-])ccc2Cl)n1` [Example 39, N-[4-(2-Methylphenyl)thiazol-2-yl]-(2-chloro-5-nitrophenyl)carboxamide], for which the activity at 1 µM (1 μM) turned out to be 119%. The activity at 0.1 µM (100 nm) came to 109%. `O=C(Nc1ccc2c3c(cccc13)CC2)c1cc([N+](=O)[O-])ccc1Cl` [Example 54, N-(Acenaphthen-5-yl)-(2-chloro-5-nitrophenyl)carboxamide]: for the setting “1 μM”, the activity at 1 µM was 113%. Take `COc1ccc(NC(=O)c2cc([N+](=O)[O-])ccc2Cl)cc1-c1ccccc1` [Example 6, N-(4-Methoxy-3-phenyl)phenyl-(2-chloro-5-nitrophenyl)carboxamide]: under “1 μM”, the activity at 1 µM stood at 108%. For the same compound, the activity at 0.1 µM (100 nm) was 111%. With `CCCCCCN(CCCCCC)c1ccc(NC(=O)c2cc([N+](=O)[O-])ccc2Cl)cc1` [Example 138, N-[4-(N,N-di-n-Hexylamino)phenyl]-(2-chloro-5-nitrophenyl)carboxamide], the activity at 1 µM (1 μM) is 111%. On to `CCCCCCCCN(CCCC)c1ccc(-c2ccc(NC(=O)c3cc([N+](=O)[O-])ccc3Cl)cc2)cc1` [Example 222, N-[4-[4-(N-Butyl-N-octylamino)phenyl]phenyl]-(2-chloro-5-nitrophenyl)carboxamide], for which the activity at 1 µM (1 μM) was 114%. Besides, the activity at 0.01 µM (10 nm) worked out at 110%. For the same compound, under “100 nm”, the activity at 0.1 µM came out at 109%.

Source of the values: US20030134859A1 (SANKYO COMPANY, LIMITED, priority 2000, published 2003).
